We go through 1 compound from publication PMC6271376 (Molecules, 2013).

A short description of series [1]: Pharmacokinetic study in rats following intravenous administration. Format: in vivo. The settings on record: Sprague-Dawley, rat, plasma. The procedure:
Male SD rats weighing from 210 to 240 g were used for the PK study. All animal experiments were performed in accordance with institutional guidelines and were approved by the University Committee on Use and Care of Animals, Shenyang Pharmaceutical University. […] Serial blood samples (0.2 mL) were obtained at 0.08, 0.17, 0.25, 0.5, 0.75, 1, 1.5, 2, 3, 4, 6, 8, 10 and 12 h after intravenous administration. All samples were placed into heparinised tubes. The rat plasma samples were centrifuged at 13,000 rpm for 10 min, and the plasma supernatant was collected. THU was added to the plasma supernatant at a final concentration of 100 µM. The plasma was frozen at −80 °C until analysis.

Series [2] in a line: Stability of azacitidine in rat plasma exposed to various storage conditions. The following applies: for Concentration found: n = 3.
Procedure: The selectivity was assessed by comparing the chromatograms of six different batches of blank rat plasma with the corresponding spiked rat plasma. […] The linearity was assessed by weighted (1/x^2) least-squares analysis of six different calibration curves. The LLOQ of the assay was the lowest concentration of the analyte with the recommended precision and accuracy less than 20%. The intra- and inter-day precision (the relative standard deviation, RSD) and accuracy (the relative error, RE) were determined by the analysis of low, medium, and high QC samples (n = 6) on 3 different days. The stability of the QC samples (n = 3) in three complete freeze/thaw cycles (−80 to 20 °C), long-term sample storage (−80 °C for 30 days) and on the bench top (20 °C for 2 h) was assessed. The ready-for-injection stability of the extracted samples in the autosampler rack at 4 °C for 24 h was also evaluated. The analytes were considered stable when the accuracy bias was within ± 20% of the nominal concentration.
[3] abbreviates: male SD rats, 2.5 mg/kg, mean ± SD, n = 3.

Regarding `Nc1ncn([C@@H]2O[C@H](CO)[C@@H](O)[C@H]2O)c(=O)n1` [Azacitidine], the half-life in series [1] (male SD rats, single dose 2.5 mg/kg, mean ± SD, n = 3, read-out: t1/2β (elimination half-life) (converted)) was 30.4 ± 11.9 min. The compound also registered a Vd in series [1] (setting [3]) of 2.07 ± 0.17 L/kg. Also, the clearance in series [1] (setting [3]) is 20.9 mL/min/kg. Further, the AUC(0-inf) in series [1] (male, SD rats, single dose 2.5 mg/kg) turned out to be 2000 ng·h/mL. The Concentration found was 23.8 ng/mL in series [2] (extracted rat plasma samples, sample rack for 24 h at 4 °C, added 20 ng/mL); 9,966.3 ng/mL in series [2] (extracted rat plasma samples, sample rack for 24 h at 4 °C, added 10,000 ng/mL); 24.0 ng/mL in series [2] (rat plasma, Ambient, 2 h, added 20 ng/mL); 10,388.5 ng/mL in series [2] (rat plasma, Ambient, 2 h, added 10,000 ng/mL); 24.0 ng/mL in series [2] (rat plasma, three freeze–thaw cycles, added 20 ng/mL); 10,073.4 ng/mL in series [2] (rat plasma, three freeze–thaw cycles, added 10,000 ng/mL). In addition, the Concentration found in series [2] (rat plasma, −80 °C, 30 days, added 20 ng/mL) is reported as 24.0 ng/mL; in series [2] (rat plasma, −80 °C, 30 days, added 10,000 ng/mL), 9,519.1 ng/mL. Further, the “Stability (change in azacitidine concentrations)” value in series [2] (rat plasma, all storage conditions of Table 3) is given as “No significant changes”.
